Measured values reported in patent US9718854B2, “Selective glycosidase inhibitors and uses thereof” (priority 2011, dated 2017).
Like-named read-outs stand apart in the source and are kept apart here. Each block holds one compound with its values, some of them ahead of it.

Legend:
O-GlcNAcase = O-GlcNAcase (Rattus norvegicus (Rat), UniProt Q8VIJ5); assay: Cell-based ELISA of O-GlcNAcylated protein (RL-2 antibody) for cellular O-GlcNAcase inhibition
Source text: Assay for Determination of Cellular Activity for Compounds that Inhibit O-GlcNAcase Activity
Inhibition of O-GlcNAcase, which removes O-GlcNAc from cellular proteins, results in an increase in the level of O-GlcNAcylated protein in cells. An increase in O-GlcNAcylated protein can be measured by an antibody, such as RL-2, that binds to O-GlcNAcylated protein. The amount of O-GlcNAcylated protein:RL2 antibody interaction can be measured by enzyme linked immunosorbant assay (ELISA) procedures.
Compounds to be tested were dissolved in DMSO, either 2 or 10 mM stock solution, and then diluted with DMSO and water in a two-step process using a Tecan workstation. […] If desired, the total protein concentration of samples was determined using 20 μL of the sample using the BCA method. […]
The amount of O-GlcNAcylated protein, as detected by the ELISA assay, was plotted for each concentration of test compound using standard curve fitting algorithms for sigmoidal dose response curves. The values for a four parameter logistic curve fit of the data were determined, with the inflection point of the curve being the potency value for the test compound.

human O-GlcNAcase = human O-GlcNAcase (Homo sapiens (Human), UniProt O60502); assay: biochemical; conditions: purified human O-GlcNAcase, 4-methylumbelliferyl N-acetyl-β-D-glucosaminide substrate, pH 7.0, Cheng-Prusoff; read-out: Fluorescence-based hOGA Ki
human O-GlcNAcase, sequence (O60502 whole entry): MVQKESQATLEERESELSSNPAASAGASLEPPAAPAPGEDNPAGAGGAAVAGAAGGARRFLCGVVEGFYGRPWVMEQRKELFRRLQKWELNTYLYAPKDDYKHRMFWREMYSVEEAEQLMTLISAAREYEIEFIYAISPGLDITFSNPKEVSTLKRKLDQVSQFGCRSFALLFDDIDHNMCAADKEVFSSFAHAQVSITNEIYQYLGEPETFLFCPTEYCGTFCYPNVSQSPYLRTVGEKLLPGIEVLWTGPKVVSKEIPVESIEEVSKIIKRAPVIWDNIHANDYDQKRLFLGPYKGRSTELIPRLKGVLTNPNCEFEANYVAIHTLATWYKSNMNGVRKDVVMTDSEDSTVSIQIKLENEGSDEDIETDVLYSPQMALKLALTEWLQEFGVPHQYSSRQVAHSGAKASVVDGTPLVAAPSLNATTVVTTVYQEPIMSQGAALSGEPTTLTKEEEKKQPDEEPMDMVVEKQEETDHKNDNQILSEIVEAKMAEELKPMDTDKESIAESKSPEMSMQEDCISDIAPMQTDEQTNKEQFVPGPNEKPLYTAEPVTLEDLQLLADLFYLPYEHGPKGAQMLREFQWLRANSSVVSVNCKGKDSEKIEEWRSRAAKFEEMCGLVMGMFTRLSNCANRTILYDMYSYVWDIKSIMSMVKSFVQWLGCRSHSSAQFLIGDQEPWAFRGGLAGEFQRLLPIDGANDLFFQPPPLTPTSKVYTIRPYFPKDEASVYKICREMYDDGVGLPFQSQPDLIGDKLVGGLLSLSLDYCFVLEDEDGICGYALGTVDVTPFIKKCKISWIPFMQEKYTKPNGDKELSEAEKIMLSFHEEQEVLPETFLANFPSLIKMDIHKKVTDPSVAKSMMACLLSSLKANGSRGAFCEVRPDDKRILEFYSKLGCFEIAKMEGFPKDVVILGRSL
Experimental: Assay for Determination of KI Values for Inhibition of O-GlcNAcase Activity
Experimental Procedure for Kinetic Analyses:
Enzymatic reactions were carried out in a reaction containing 50 mM NaH2PO4, 100 mM NaCl and 0.1% BSA (pH 7.0) using 2 mM 4-Methylumbelliferyl N-acetyl-β-D-glucosaminide dihydrate (Sigma M2133) dissolved in ddH2O, as a substrate. The amount of purified human O-GlcNAcase enzyme used in the reaction was 0.7 nM. Test compound of varying concentrations was added to the enzyme prior to initiation of the reaction. The reaction was performed at room temperature in a 96-well plate and was initiated with the addition of substrate. […] The slope of product production was determined for each concentration of compound tested and plotted, using standard curve fitting algorithms for sigmoidal dose response curves. The values for a four parameter logistic curve fit of the data were determined.

O-GlcNAcase, sequence (Q8VIJ5 whole entry): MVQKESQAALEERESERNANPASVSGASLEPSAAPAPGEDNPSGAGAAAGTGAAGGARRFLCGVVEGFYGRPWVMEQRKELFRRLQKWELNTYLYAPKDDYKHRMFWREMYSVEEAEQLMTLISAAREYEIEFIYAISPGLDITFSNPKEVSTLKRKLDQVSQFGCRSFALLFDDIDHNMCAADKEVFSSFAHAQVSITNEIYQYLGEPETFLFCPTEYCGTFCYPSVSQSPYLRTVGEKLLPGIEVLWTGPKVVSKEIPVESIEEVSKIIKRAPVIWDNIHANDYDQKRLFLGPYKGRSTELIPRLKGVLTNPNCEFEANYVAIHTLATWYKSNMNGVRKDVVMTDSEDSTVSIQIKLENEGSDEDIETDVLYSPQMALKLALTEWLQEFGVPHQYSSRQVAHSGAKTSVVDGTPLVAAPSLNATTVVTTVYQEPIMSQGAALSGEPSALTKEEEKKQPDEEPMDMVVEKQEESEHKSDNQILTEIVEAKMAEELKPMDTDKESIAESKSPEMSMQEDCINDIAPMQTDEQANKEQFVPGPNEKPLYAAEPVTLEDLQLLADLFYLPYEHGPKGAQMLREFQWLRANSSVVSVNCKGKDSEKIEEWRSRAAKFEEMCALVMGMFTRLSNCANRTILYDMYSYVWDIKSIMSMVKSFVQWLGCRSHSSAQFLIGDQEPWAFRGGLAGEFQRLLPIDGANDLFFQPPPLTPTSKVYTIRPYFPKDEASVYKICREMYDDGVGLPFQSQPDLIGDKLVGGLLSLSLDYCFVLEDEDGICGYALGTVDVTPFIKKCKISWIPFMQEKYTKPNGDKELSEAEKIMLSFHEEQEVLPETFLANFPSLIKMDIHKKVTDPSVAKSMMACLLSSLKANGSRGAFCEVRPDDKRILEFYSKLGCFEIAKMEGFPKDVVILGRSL

Structure (SMILES): CNC1=N[C@@H]2[C@@H](O)[C@H](O)[C@@H](COC(=O)N(C)C)O[C@@H]2S1 [Example 9, ((3aR,5R,6S,7R,7aR)-6,7-dihydroxy-2-(methylamino)-5,6,7,7a-tetrahydro-3aH-pyrano[3,2-d]thiazol-5-yl)methyl dimethylcarbamate]
EC50 (O-GlcNAcase; rat PC-12 cells, 24 h treatment, O-GlcNAcylated protein detected with RL-2 antibody, read-out: Cell-based ELISA EC50): 212 nM

Structure (SMILES): CNC1=N[C@@H]2[C@@H](O)[C@H](O)[C@@H](CNC3CCCC3)O[C@@H]2S1 [Example 37, (3aR,5R,6S,7R,7aR)-5-((cyclopentylamino)methyl)-2-(methylamino)-5,6,7,7a-tetrahydro-3aH-pyrano[3,2-d]thiazole-6,7-diol]
EC50 (O-GlcNAcase): 3.7 nM

Ki (human O-GlcNAcase): 5.4 nM
Structure (SMILES): CNC1=N[C@@H]2[C@@H](O)[C@H](O)[C@@H](CNCC#N)O[C@@H]2S1 [Example 53, 2-((((3aR,5R,6S,7R,7aR)-6,7-dihydroxy-2-(methylamino)-5,6,7,7a-tetrahydro-3aH-pyrano[3,2-d]thiazol-5-yl)methyl)amino)acetonitrile]
